Drawing on patent US20120129842A1, “BISTHIAZOLE INHIBITORS OF PRO-MATRIX METALLOPROTEINASE ACTIVATION” (priority 2010, published 2012), this text covers Kd and IC50 for 17 compounds.

Counter-ions that a name gives are not always drawn.

The target of experiment [1] is T1, proMMP9(20-445;ΔFnII) (SEQ ID NO:6) (Homo sapiens, UniProt P14780, DEL216-390).
T1 construct: start methionine (N); made in house; host or cells: E. coli BL21(DE3) RIL
T1 sequence (P14780 with tags, fused parts or gaps DEL216-390): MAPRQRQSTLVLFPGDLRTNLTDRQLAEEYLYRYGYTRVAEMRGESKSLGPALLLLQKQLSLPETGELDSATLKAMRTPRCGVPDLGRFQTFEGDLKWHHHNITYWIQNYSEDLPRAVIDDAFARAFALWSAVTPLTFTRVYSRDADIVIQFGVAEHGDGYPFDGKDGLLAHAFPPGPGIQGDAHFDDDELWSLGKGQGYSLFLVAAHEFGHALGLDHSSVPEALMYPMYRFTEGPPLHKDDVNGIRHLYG
Put plainly: ThermoFluor binding assay with proMMP9(20-445;ΔFnII). Particulars: pH 7.0. Here is the method: (§1) The ThermoFluor® (TF) assay is a 384-well plate-based binding assay that measures thermal stability of proteins (Biomol Screen 2001, 6, 429-40; Biochemistry 2005, 44, 5258-66). The experiments were carried out using instruments available from Johnson & Johnson Pharmaceutical Research & Development, LLC. TF dye used in all experiments was […] (1,8-ANS) (Invitrogen: A-47).
(§2) Compounds were arranged in a pre-dispensed plate (Greiner Bio-one: 781280), wherein compounds were serially diluted in 100% DMSO across 11 columns within a series. Columns 12 and 24 were used as DMSO reference and contained no compound. For multiple compound concentration-response experiments, the compound aliquots ([…]) were robotically predispensed directly into black 384-well polypropylene PCR microplates (Abgene: TF-0384/k) using a Cartesian Hummingbird liquid handler (DigiLab, Holliston, Mass.). Following compound dispense, protein and dye solutions were added to achieve the final assay volume of 3 μL. The assay solutions were overlayed with 1 μL of silicone oil (Fluka, type DC 200: 85411) to prevent evaporation.
(§3) Assay plates were robotically loaded onto a thermostatically controlled PCR-type thermal block and then heated from 40 to 90° C. at a ramp-rate of 1° C./min for all experiments. Fluorescence was measured by continuous illumination with UV light (Hamamatsu LC6) supplied via fiber optics and filtered through a band-pass filter (380-400 nm; >6 OD cutoff). Fluorescence emission of the entire 384-well plate was detected by measuring light intensity using a CCD camera (Sensys, Roper Scientific) filtered to detect 500±25 nm, resulting in simultaneous and independent readings of all 384 wells. A single image with 20-sec exposure time was collected at each temperature, and the sum of the pixel intensity in a given area of the assay plate was recorded vs temperature and fit to standard equations to yield the Tm (J Biomol Screen 2001, 6, 429-40).
(§4) Thermodynamic parameters necessary for fitting compound binding for each proMMP were estimated by differential scanning calorimetry (DSC) and from ThermoFluor® data. The heat capacity of unfolding for each protein was estimated from the molecular weight and from ThermoFluor® dosing data.
The protein sample preparations included a desalting buffer exchange step via a PD-10 gravity column (GE Healthcare). The desalting buffer exchange was performed prior to diluting the protein to the final assay concentration of 2.8 μM proMMP9(20-445;ΔFnII) (SEQ ID NO:6). The concentration of proMMP9(20-445;ΔFnII) (SEQ ID NO:6) was determined spectrophotometrically based on a calculated extinction coefficient of ε280=39880 M^−cm^−1, a calculated molecular weight of 28.2 kDa, and calculated pI of 5.5. ThermoFluor® reference conditions were define as follows: 80 μg/mL (2.8 μM) proMMP9(20-445;ΔFnII) (SEQ ID NO:6), 50 μM 1,8-ANS, pH 7.0 Buffer (50 mM HEPES pH 7.0, 100 mM NaCl, 0.001% Tween-20, 2.5 mM MgCl2, 300 μM CaCl2). The thermodynamic parameters for proMMP9(20-445;ΔFnII) (SEQ ID NO:6) are as follows: Tm (° C.)=72 (+/−0.1), ΔUH(Tm) (cal mol^−1)=160000(+/−5000), ΔUS(Tm) (cal mol^−1 K^−1)=434, ΔUCp (cal mol^−1 K^−)=2400.
(In general: DSF heats the sample and reads unfolding from a dye or from intrinsic fluorescence.)

Experiment [2] deals with T2, proMMP9(67-444;ΔFnII) (SEQ ID NO:5) (Homo sapiens, UniProt P14780, DEL216-390).
T2 construct: start methionine (N); made in house; host or cells: E. coli BL21(DE3) RIL
T2 sequence (P14780 with tags, fused parts or gaps DEL216-390): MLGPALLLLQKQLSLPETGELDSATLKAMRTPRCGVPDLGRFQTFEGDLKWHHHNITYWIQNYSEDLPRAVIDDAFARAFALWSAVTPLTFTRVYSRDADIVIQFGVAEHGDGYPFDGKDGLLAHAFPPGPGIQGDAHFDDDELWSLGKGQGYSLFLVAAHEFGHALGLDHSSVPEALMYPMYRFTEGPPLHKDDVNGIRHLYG
Put plainly: ThermoFluor binding assay with proMMP9(67-444;ΔFnII). The note with it: pH 7.0. Here is the method: as §1, §2, §3, §4
The protein sample preparations had to include a desalting buffer exchange step via a PD-10 gravity column (GE Healthcare). The desalting buffer exchange was performed prior to diluting the protein to the final assay concentration of 3.5 μM proMMP9(67-444;ΔFnII) (SEQ ID NO:5). The concentration of proMMP9(67-444;ΔFnII) (SEQ ID NO:5) was determined spectrophotometrically based on a calculated extinction coefficient of ε280=33900 M^−1cm^−1, a calculated molecular weight of 22.6 kDa, and calculated pI of 5.20. ThermoFluor® reference conditions were defined as follows: 80 μg/mL (3.5 μM) proMMP9(67-444;ΔFnII) (SEQ ID NO:5), 50 μM 1,8-ANS, pH 7.0 Buffer (50 mM HEPES pH 7.0, 100 mM NaCl, 0.001% Tween-20, 2.5 mM MgCl2, 300 μM CaCl2). The thermodynamic parameters for proMMP9(67-444;ΔFnII) (SEQ ID NO:5) are as follows: Tm (° C.)=63 (+/−0.1), ΔUH(Tm) (cal mol^−1)=105000(+/−5000), ΔUS(Tm) (cal mol^−1 K^−1)=[…], ΔUCp (cal mol^−1 K^−1)=2000.

Experiment [3] addresses T3, full-length proMMP9(1-707) (SEQ ID NO:1) (Homo sapiens, UniProt P14780, R574P).
T3 construct: made in house; host or cells: HEK293 (proMMP9, secreted); E. coli (MMP3)
Put plainly: proMMP9/MMP3 P126 Activation Assay. In kind it is biochemical. Particulars: 20 nM proMMP9, 20 nM MMP3, 80 min 37° C. Here is the method: The reaction volume was 50 μL. […] Reactivity of residual MMP3 towards P-126 substrate was minimal under these conditions.

T3 sequence (P14780 20-707 R574P): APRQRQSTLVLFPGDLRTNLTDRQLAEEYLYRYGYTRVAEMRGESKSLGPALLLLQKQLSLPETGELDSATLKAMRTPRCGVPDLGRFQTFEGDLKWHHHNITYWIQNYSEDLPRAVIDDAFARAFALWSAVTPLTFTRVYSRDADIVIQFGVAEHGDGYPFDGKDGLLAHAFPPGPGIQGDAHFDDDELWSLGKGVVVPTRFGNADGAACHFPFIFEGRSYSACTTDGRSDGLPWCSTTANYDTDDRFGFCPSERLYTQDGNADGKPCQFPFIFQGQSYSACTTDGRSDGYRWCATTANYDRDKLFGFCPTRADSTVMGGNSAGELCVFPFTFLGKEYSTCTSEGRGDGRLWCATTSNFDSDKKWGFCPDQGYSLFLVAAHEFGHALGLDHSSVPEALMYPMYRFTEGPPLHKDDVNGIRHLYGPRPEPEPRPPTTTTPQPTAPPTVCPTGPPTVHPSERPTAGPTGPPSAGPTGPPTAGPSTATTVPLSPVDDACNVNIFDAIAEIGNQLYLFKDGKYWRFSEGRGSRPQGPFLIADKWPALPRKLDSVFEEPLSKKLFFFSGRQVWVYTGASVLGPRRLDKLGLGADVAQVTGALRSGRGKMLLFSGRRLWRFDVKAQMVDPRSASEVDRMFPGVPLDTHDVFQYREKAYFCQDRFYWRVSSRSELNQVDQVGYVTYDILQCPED

For `Cc1nc(C)c(-c2csc(Nc3cc(C#N)ccc3OC(C)C)n2)s1` [Example 72, 3-(2′,4′-Dimethyl-[4,5′]bithiazolyl-2-ylamino)-4-isopropoxy-benzonitrile.HBr], the Kd in experiment [1] turned out to be 8600 nM; in experiment [2], 1200 nM. In experiment [3], this compound returned an IC50 of 1000 nM.

For `CC(=O)Nc1nc(C)c(-c2csc(Nc3cc(C#N)ccc3OC(C)C)n2)s1` [Example 73, N-[2-(5-Cyano-2-isopropoxy-phenylamino)-4′-methyl-[4,5′]bithiazolyl-2′-yl]-acetamide.HBr], the dissociation constant Kd in experiment [1] is 4300 nM; in experiment [2] it was 330 nM. The compound also had an IC50 in experiment [3] of 520 nM.

Take `Cc1nc(N)sc1-c1csc(Nc2cc(C(=O)O)ccc2OC(C)C)n1` [Example 77, 3-(2′-Amino-4′-methyl-[4,5′]bithiazolyl-2-ylamino)-4-isopropoxy-benzoic acid.TFA]: the Kd in experiment [1] was 350 nM; in experiment [2] it was 450 nM. The compound also came in with an IC50 in experiment [3] of 410 nM.

In the case of `COc1ccc(NC(C)=O)cc1Nc1nc(-c2sc(N)nc2C)cs1` [Example 84, N-[3-(2′-Amino-4′-methyl-[4,5′]bithiazolyl-2-ylamino)-4-methoxy-phenyl]-acetamide.TFA], the figures for the dissociation constant (Kd) in experiment [1] and in experiment [2] were 19000 nM and 9700 nM, respectively. In addition, it took 9800 nM to reach half-maximal inhibition in experiment [3] (IC50).

`Cc1nc(N2CCCC2)sc1-c1csc(Nc2cc(C(N)=O)ccc2OC(C)C)n1` [Example 91, 4-Isopropoxy-3-(4′-methyl-2′-pyrrolidin-1-yl-[4,5′]bithiazolyl-2-ylamino)-benzamide.TFA]: the equilibrium dissociation constant (Kd) in experiment [1] worked out at 140 nM; in experiment [2], 520 nM. Besides, half-maximal inhibition in experiment [3] (IC50) required 300 nM.

For the compound `Cc1nc(Nc2ccncc2)sc1-c1csc(Nc2cc(C(N)=O)ccc2OC(C)C)n1` [Example 92, 4-Isopropoxy-3-[4′-methyl-2′-(pyridin-4-ylamino)-[4,5′]bithiazolyl-2-ylamino]-benzamide.TFA], the Kd in experiment [1] was 45 nM; in experiment [2] it was 220 nM. The compound further came in with an IC50 in experiment [3] of 340 nM.

`Cc1nc(-c2ncc(C(F)(F)F)cc2N2CCCC2)sc1-c1csc(Nc2cc(C(N)=O)ccc2OC(C)C)n1` [Example 97, 4-Isopropoxy-3-[4′-methyl-2′-(3-pyrrolidin-1-yl-5-trifluoromethyl-pyridin-2-yl)-[4,5′]bithiazolyl-2-ylamino]-benzamide.TFA]: the dissociation constant Kd was 1900 nM in experiment [1] and over 95000 nM in experiment [2]. Besides, the IC50 in experiment [3] is over 20000 nM.

`COc1ccc(-c2ccc(C(C)=O)s2)cc1Nc1nc(-c2sc(C)nc2C)cs1` [Example 134, 1-{5-[3-(2′,4′-Dimethyl-[4,5′]bithiazolyl-2-ylamino)-4-methoxy-phenyl]-thiophen-2-yl}-ethanone]: the values for the Kd in experiment [1] and in experiment [2] were 18000 nM and over 95000 nM, respectively. This compound also came in with a half-inhibitory concentration (IC50) in experiment [3] of over 20000 nM.

With `COc1ccc(-c2c(C)noc2C)cc1Nc1nc(-c2sc(C)nc2C)cs1` [Example 135, (2′,4′-Dimethyl-[4,5′]bithiazolyl-2-yl)-[5-(3,5-dimethyl-isoxazol-4-yl)-2-methoxy-phenyl]-amine], the dissociation constant (Kd) in experiment [1] amounted to 31000 nM; in experiment [2], 40000 nM. The half-maximal inhibitory concentration (IC50) in experiment [3] is about 5000 nM.

`COc1ccc(-c2cnn(C)c2)cc1Nc1nc(-c2sc(C)nc2C)cs1` [Example 136, (2′,4′-Dimethyl-[4,5′]bithiazolyl-2-yl)-[2-methoxy-5-(1-methyl-1H-pyrazol-4-yl)-phenyl]-amine]: the dissociation constant Kd in experiment [1] worked out at 38000 nM; in experiment [2], 8200 nM. In experiment [3], the half-maximal inhibitory concentration (IC50) was about 6000 nM.

In the case of `COc1ccc(-c2cc[nH]n2)cc1Nc1nc(-c2sc(C)nc2C)cs1` [Example 137, (2′,4′-Dimethyl-[4,5′]bithiazolyl-2-yl)-[2-methoxy-5-(1H-pyrazol-3-yl)-phenyl]-amine], the Kd in experiment [1] amounted to 11000 nM; in experiment [2] it was 2200 nM. Also, the half-maximal inhibitory concentration (IC50) in experiment [3] came to 4700 nM.

As for `Cc1nc(-c2cnccn2)sc1-c1csc(Nc2cc(C(N)=O)ccc2OC(C)C)n1` [Example 145], the Kd in experiment [1] worked out at 130 nM; in experiment [2], 650 nM. In addition, the half-inhibitory concentration (IC50) in experiment [3] worked out at 780 nM.

`COc1ccncc1Nc1nc(-c2sc(C)nc2C)cs1` [Example 151, N-(4-Methoxypyridin-3-yl)-2′,4′-dimethyl-[4,5′-bithiazol]-2-amine]: the Kd turned out to be 3700 nM in experiment [1] and 570 nM in experiment [2]. This compound gave a half-inhibitory concentration (IC50) in experiment [3] of 410 nM.

Take `Cc1nc(C)c(-c2nc(Nc3cc(S(N)(=O)=O)ccc3OC(C)C)sc2C)s1` [Example 152, 4-Isopropoxy-3-((2′,4′,5-trimethyl-[4,5′-bithiazol]-2-yl)amino)benzenesulfonamide]: the dissociation constant Kd turned out to be 5700 nM in experiment [1] and 6400 nM in experiment [2]. In experiment [3], this compound displayed a concentration for half-maximal inhibition (IC50) of 4700 nM.

Regarding `Cc1nc(C)c(-c2nc(Nc3cc(C(N)=O)ccc3OC(C)C)sc2C)s1` [Example 153, 4-Isopropoxy-3-((2′,4′,5-trimethyl-[4,5′-bithiazol]-2-yl)amino)benzamide], the Kd came out at 1600 nM in experiment [1] and 4500 nM in experiment [2]. In experiment [3], the IC50 amounted to 1400 nM.

In the case of `CCSc1ccc(S(N)(=O)=O)cc1Nc1nc(-c2sc(C)nc2C)cs1` [Example 154, 3-((2′,4′-Dimethyl-[4,5′-bithiazol]-2-yl)amino)-4-(ethylthio)benzenesulfonamide], the Kd in experiment [1] came to 2200 nM; in experiment [2], 2000 nM. Besides, the half-maximal inhibitory concentration (IC50) in experiment [3] is 2600 nM.

Regarding `COc1ccncc1Nc1nc(-c2sc(N3CCN(C)CC3)nc2C)cs1` [Example 155, N-(4-Methoxypyridin-3-yl)-4′-methyl-2′-(4-methylpiperazin-1-yl)-[4,5′-bithiazol]-2-amine.TFA], the figures for the Kd in experiment [1] and in experiment [2] were 1900 nM and 340 nM, respectively. Also, in experiment [3], the IC50 is 290 nM.

What is called Kd is the concentration at which binding is half-saturated. One may read the IC50 as the concentration that gives 50% inhibition. A lower IC50 goes with higher potency.
